pEC50, pIC50: −log10 of the molar value. Active and inactive are the calls of the source. The calls are words filed in the database; no cut-off is given here.
Assays:
[1] = test system: Bundibugyo virus; assay: Antiviral activity against pseudotyped Bundibugyo ebolavirus expressing glycoprotein infected in human A549 cells assessed as inhibition of viral entry incubated for 48 hrs by Neolite reporter gene assay; assay type: functional, organism-based; conditions: A549, 48 h
[2] = test system: Sudan ebolavirus; assay: Antiviral activity against pseudotyped Sudan ebolavirus expressing glycoprotein infected in human A549 cells assessed as inhibition of viral entry incubated for 48 hrs by Neolite reporter gene assay; assay type: functional, organism-based; conditions: A549, 48 h
[3] = Cmax in female C57BL/6J mouse at 50 mg/kg, ip; assay type: ADME, organism-based; conditions: in vivo
[4] = Selectivity index, ratio of CC50 for human HeLa cells to EC50 for antiviral activity against wildtype Ebolavirus infected in human HeLa cells; assay type: toxicity, cell-based; conditions: read-out: Ratio CC50/EC50
[5] = Half-life in female C57BL/6J mouse at 25 mg/kg, ip; assay type: ADME, organism-based; conditions: in vivo
[6] = Metabolic stability in BALB/c mouse liver microsomes assessed as parent compound remaining measured after 60 mins in presence of NADPH by LC-MS/MS analysis; assay type: ADME, Microsome; conditions: read-out: Stability
[7] = Clearance in female C57BL/6J mouse at 25 mg/kg, ip; assay type: ADME, organism-based; conditions: in vivo
[8] = test system: HeLa; assay: Cytotoxicity against human HeLa cells by Celltiter-Glo luminescent cell viability assay; assay type: toxicity, cell-based
[9] = test system: Marburgvirus; assay: Antiviral activity against pseudotyped Marburg virus expressing glycoprotein infected in human A549 cells assessed as inhibition of viral entry incubated for 48 hrs by Neolite reporter gene assay; assay type: functional, organism-based; conditions: Orthomarburgvirus, A549, 48 h
[10] = Cmax in female C57BL/6J mouse at 25 mg/kg, ip; assay type: ADME, organism-based; conditions: in vivo
[11] = Stability in human plasma assessed as parent compound remaining at 2 uM measured after 60 mins by LC-MS/MS analysis; assay type: ADME, cell-free; conditions: read-out: Stability
[12] = test system: Vesicular stomatitis virus; assay: Antiviral activity against pseudotyped vesicular stomatitis virus expressing glycoprotein infected in human A549 cells assessed as inhibition of viral entry incubated for 48 hrs by Neolite reporter gene assay; assay type: functional, organism-based
[13] = test system: Zaire ebolavirus; assay: Antiviral activity against pseudotyped Zaire ebolavirus expressing glycoprotein infected in human A549 cells assessed as inhibition of viral entry incubated for 48 hrs by Neolite reporter gene assay; assay type: functional, organism-based; conditions: A549, 48 h
[14] = Metabolic stability in human liver microsomes assessed as parent compound remaining measured after 60 mins in presence of NADPH by LC-MS/MS analysis; assay type: ADME, Microsome; conditions: read-out: Stability
[15] = test system: Tai Forest ebolavirus; assay: Antiviral activity against pseudotyped Tai Forest ebolavirus expressing glycoprotein infected in human A549 cells assessed as inhibition of viral entry incubated for 48 hrs by Neolite reporter gene assay; assay type: functional, organism-based; conditions: A549, 48 h
[16] = test system: Ebolavirus; assay: Antiviral activity against pseudotyped Ebola virus expressing glycoprotein infected in human A549 cells assessed as inhibition of viral entry incubated for 48 hrs by Neolite reporter gene assay; assay type: functional, organism-based; conditions: Orthoebolavirus, A549, 48 h
[17] = test system: Ebolavirus; assay: Antiviral activity against wildtype Ebola virus infected in human HeLa cells incubated for 40 hrs by Hoechst 33342 staining based Cytation-1 automated microscopic analysis; assay type: functional, organism-based; conditions: Orthoebolavirus
[18] = molecular target: T1, CYP1A2 (Homo sapiens, UniProt P05177); assay: Inhibition of CYP1A2 in human liver microsomes using phenacetin as substrate at 10 uM preincubated for 5 mins followed by substrate addition and measured after 20 mins by LC-MS analysis relative to control; assay type: ADME, Microsome; conditions: probe phenacetin, time 25 min
T1 sequence (P05177 whole entry): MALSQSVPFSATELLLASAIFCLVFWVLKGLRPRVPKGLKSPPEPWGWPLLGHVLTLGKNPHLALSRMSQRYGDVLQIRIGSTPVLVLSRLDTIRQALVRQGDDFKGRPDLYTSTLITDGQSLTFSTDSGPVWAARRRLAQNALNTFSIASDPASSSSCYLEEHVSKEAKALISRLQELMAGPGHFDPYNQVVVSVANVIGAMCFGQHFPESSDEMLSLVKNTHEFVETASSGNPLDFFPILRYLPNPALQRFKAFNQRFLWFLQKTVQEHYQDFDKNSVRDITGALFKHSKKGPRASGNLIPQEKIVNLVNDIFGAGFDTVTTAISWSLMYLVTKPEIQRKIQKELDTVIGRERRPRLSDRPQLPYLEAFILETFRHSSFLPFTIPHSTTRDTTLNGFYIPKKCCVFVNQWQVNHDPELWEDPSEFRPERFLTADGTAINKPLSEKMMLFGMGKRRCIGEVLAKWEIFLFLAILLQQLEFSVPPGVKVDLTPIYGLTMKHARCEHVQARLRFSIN

[19] = Tmax in female C57BL/6J mouse at 50 mg/kg, ip; assay type: ADME, organism-based; conditions: in vivo
[20] = Clearance in female C57BL/6J mouse at 50 mg/kg, ip; assay type: ADME, organism-based; conditions: in vivo
[21] = Selectivity index, ratio of CC50 for human A549 cells to EC50 for pseudotyped Ebola virus expressing glycoprotein infected in human A549 cells; assay type: toxicity, cell-based; conditions: read-out: Ratio CC50/EC50
[22] = molecular target: CYP2C9 (Homo sapiens, UniProt P11712); assay: Inhibition of CYP2C9 in human liver microsomes using tolbutamide as substrate at 10 uM preincubated for 5 mins followed by substrate addition and measured after 20 mins by LC-MS analysis relative to control; assay type: ADME, Microsome; conditions: probe tolbutamide, time 25 min
[23] = Half-life in female C57BL/6J mouse at 50 mg/kg, ip; assay type: ADME, organism-based; conditions: in vivo
[24] = test system: Influenza A virus; assay: Antiviral activity against pseudotyped Influenza A virus A/Goose/Qinghai/59/05(H5N1) infected in human A549 cells assessed as inhibition of viral entry incubated for 48 hrs by Neolite reporter gene assay; assay type: functional, organism-based
[25] = Tmax in female C57BL/6J mouse at 25 mg/kg, ip; assay type: ADME, organism-based; conditions: in vivo
[26] = Stability in mouse plasma assessed as parent compound remaining at 2 uM measured after 60 mins by LC-MS/MS analysis; assay type: ADME, cell-free; conditions: read-out: Stability
[27] = test system: Reston ebolavirus; assay: Antiviral activity against pseudotyped Reston ebolavirus expressing glycoprotein infected in human A549 cells assessed as inhibition of viral entry incubated for 48 hrs by Neolite reporter gene assay; assay type: functional, organism-based; conditions: A549, 48 h
[28] = molecular target: Voltage-gated inwardly rectifying potassium channel KCNH2 (Homo sapiens, UniProt Q12809); assay: Inhibition of human ERG; assay type: toxicity
[29] = molecular target: CYP2D6 (Homo sapiens, UniProt P10635); assay: Inhibition of CYP2D6 in human liver microsomes using dextromethorphan as substrate at 10 uM preincubated for 5 mins followed by substrate addition and measured after 20 mins by LC-MS analysis relative to control; assay type: ADME, Microsome; conditions: probe dextromethorphan, time 25 min
[30] = AUC in female C57BL/6J mouse at 25 mg/kg, ip; assay type: ADME, organism-based; conditions: in vivo
[31] = test system: A549; assay: Induction of phospholipidosis in human A549 cells at 10 uM incubated for 48 hrs by Hoechst 33342 staining based fluorescence imaging analysis; assay type: functional, cell-based
[32] = AUC in female C57BL/6J mouse at 50 mg/kg, ip; assay type: ADME, organism-based; conditions: in vivo
[33] = Toxicity in female C57BL/6J mouse assessed as adverse effect at 25 to 50 mg/kg, ip; assay type: organism-based; conditions: in vivo, dose 25-50 mg/kg
[34] = molecular target: CYP3A4 (Homo sapiens, UniProt P08684); assay: Inhibition of CYP3A4 in human liver microsomes using midazolam as substrate at 10 uM preincubated for 5 mins followed by substrate addition and measured after 20 mins by LC-MS analysis relative to control; assay type: ADME, Microsome; conditions: probe midazolam, time 25 min
Sequence of CYP3A4 (P08684 whole entry): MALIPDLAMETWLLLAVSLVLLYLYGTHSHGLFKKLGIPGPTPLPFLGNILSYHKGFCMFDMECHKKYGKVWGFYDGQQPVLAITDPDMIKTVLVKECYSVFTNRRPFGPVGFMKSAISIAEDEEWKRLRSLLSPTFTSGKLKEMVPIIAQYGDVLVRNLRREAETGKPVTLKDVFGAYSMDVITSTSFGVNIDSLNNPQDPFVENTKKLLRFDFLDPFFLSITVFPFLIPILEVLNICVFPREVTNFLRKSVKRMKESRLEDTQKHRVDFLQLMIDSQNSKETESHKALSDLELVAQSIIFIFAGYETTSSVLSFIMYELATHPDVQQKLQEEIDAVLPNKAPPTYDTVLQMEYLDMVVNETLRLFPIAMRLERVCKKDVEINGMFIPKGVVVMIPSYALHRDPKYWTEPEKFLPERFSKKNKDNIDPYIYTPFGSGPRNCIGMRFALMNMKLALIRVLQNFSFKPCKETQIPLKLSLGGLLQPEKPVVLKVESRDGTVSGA

Sequence of Voltage-gated inwardly rectifying potassium channel KCNH2 (Q12809 whole entry): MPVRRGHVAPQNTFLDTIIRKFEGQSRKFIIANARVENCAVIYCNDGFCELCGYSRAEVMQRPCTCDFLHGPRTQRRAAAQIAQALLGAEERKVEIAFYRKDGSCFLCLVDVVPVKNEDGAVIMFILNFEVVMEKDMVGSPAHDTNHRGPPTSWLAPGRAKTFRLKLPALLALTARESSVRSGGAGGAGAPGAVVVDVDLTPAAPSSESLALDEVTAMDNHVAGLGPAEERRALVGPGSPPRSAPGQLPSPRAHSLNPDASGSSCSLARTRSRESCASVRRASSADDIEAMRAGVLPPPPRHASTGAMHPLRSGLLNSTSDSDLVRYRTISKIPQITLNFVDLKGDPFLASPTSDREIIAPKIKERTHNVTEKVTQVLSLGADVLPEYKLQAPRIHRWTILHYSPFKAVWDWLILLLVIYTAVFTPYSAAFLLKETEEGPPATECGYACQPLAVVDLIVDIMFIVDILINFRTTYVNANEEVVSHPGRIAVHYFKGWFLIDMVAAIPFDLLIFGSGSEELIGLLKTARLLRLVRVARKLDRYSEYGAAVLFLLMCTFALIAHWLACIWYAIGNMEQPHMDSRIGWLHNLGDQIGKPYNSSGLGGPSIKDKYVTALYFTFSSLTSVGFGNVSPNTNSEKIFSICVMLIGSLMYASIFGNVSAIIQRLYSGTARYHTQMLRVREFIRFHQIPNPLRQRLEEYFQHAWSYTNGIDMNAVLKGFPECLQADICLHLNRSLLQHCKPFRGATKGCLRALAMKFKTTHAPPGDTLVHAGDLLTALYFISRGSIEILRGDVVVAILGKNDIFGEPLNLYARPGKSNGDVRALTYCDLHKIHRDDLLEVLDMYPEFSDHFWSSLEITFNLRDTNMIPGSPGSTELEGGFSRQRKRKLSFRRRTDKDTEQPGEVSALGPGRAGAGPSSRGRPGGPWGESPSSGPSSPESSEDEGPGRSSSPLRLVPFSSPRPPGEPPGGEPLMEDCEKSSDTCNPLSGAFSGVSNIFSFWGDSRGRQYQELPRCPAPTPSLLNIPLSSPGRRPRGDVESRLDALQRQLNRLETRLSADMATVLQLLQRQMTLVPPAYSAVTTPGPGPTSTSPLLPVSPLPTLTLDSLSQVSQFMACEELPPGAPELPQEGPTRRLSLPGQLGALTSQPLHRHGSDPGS
Sequence of CYP2C9 (P11712 whole entry): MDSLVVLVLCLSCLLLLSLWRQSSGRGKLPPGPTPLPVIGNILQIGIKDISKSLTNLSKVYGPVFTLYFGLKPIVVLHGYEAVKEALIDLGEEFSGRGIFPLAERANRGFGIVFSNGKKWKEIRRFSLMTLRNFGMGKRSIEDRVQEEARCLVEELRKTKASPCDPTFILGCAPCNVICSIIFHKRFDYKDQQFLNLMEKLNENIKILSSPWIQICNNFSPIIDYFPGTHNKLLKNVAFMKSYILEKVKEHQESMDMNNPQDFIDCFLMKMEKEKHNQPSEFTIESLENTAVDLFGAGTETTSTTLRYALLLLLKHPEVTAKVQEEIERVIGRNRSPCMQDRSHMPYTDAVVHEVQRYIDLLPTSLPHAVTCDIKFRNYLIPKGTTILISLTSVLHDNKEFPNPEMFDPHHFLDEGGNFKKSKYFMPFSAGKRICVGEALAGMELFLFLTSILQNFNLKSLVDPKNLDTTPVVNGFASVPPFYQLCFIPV
Sequence of CYP2D6 (P10635 whole entry): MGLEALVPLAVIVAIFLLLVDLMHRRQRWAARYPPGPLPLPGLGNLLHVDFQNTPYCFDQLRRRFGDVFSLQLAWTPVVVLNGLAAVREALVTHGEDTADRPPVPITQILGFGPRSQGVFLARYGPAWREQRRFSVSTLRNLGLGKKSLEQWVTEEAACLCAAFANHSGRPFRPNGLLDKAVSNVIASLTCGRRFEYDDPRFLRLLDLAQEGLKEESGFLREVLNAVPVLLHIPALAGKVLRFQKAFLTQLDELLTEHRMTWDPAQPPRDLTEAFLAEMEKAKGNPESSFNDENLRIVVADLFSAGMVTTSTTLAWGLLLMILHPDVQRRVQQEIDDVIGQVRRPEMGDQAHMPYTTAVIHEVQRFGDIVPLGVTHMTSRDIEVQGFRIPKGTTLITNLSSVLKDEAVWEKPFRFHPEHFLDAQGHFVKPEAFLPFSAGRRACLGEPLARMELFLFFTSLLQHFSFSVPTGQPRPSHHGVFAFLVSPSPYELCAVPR

| Compound | pEC50 [1] | pEC50 [2] | Cmax [3] | half-life [5] | remaining at 1 h [6] | CL/F [7] | CC50 [8] | pEC50 [9] | Cmax [10] | remaining at 1 h, 2 µM [11] | inhibition [12] | pEC50 [13] | remaining at 1 h [14] | pEC50 [15] | pEC50 [16] | pEC50 [17] | inhibition at 20 min, 10 µM [18] | Tmax [19] | CL/F [20] | inhibition at 20 min, 10 µM [22] | other results |
| --- | --- | --- | --- | --- | --- | --- | --- | --- | --- | --- | --- | --- | --- | --- | --- | --- | --- | --- | --- | --- | --- |
| O=C(Nc1ccc(N2CCC3(CCC3)CC2)c(C(F)(F)F)c1)c1ccc(C(=O)N2C[C@@H]3C[C@H]2CO3)nc1 | 6.68 | 6.05 | 14600 ng/mL | 84 min | 84% | 20.2 mL/min/kg | 47.7 µM | 5.65 | 5370 ng/mL | ~100% | Weak_effect | 6.80 | 83.6% | 6.96 | 6.80 | 6.14 | 13.5% | 42 min | 14.4 mL/min/kg | 56.6% | selectivity ratio [4]: 65; selectivity ratio [21]: 258; half-life [23]: 114 min; inhibition [24]: Weak_effect; Tmax [25]: 1.7 h; remaining at 1 h, 2 µM [26]: 97%; pEC50 [27]: 6.68; pIC50 [28]: 5.03; inhibition at 20 min, 10 µM [29]: 24.9%; AUC [30]: 20700 ng·h/mL; Activity [31]: inactive; AUC [32]: 57800 ng·h/mL |
| O=C(Nc1ccc(N2CCC3(CCC3)CC2)c(C(F)(F)F)c1)c1ccc(CN2C[C@@H]3C[C@H]2CO3)nc1 | 6.08 | 5.67 | 6790 ng/mL | 204 min | 77% | 29.2 mL/min/kg | 19.1 µM | 6.17 | 2170 ng/mL | ~100% | Weak_effect | 6.92 | 60% | 6.54 | 6.92 | 6.36 | 5.4% | 60 min | 24.3 mL/min/kg | 66.4% | Activity [33]: Non-toxic; inhibition at 20 min, 10 µM [34]: 4.9%; half-life [23]: 288 min; inhibition [24]: Weak_effect; Tmax [25]: 0.5 h; remaining at 1 h, 2 µM [26]: 90%; pEC50 [27]: 6.52; pIC50 [28]: 5.82; inhibition at 20 min, 10 µM [29]: 35.2%; AUC [30]: 14300 ng·h/mL; AUC [32]: 34400 ng·h/mL |
